Assay results from ChEMBL document CHEMBL1127033, “Synthesis and anti-HIV-1 activity of a series of imidazo[1,5-b]pyridazines” (J Med Chem, 1993).
Values joined by “and” are separate entries in the source; they are usually repeats but may differ in a detail not shown here. Identical values can stand only once.

Key:
C8166 [1] = test: Inhibition of p24 antigen formation in infected C8166-cells; assay type: functional, cell-based; details: Homo sapiens
C8166 [2] = test: Inhibition of syncytia formation in infected C8166-cells; assay type: functional, cell-based; details: Homo sapiens
MT4 [3] = test: Inhibition of growth in uninfected MT-4 cells in MTM assay; assay type: functional, cell-based; details: Homo sapiens
[4] = biological target: T1, Human immunodeficiency virus type 1 reverse transcriptase (Human immunodeficiency virus 1, UniProt Q72547); test: In vitro inhibitory concentration against reverse transcriptase of HIV-1 (RT)
[5] = tested on: Human immunodeficiency virus 1; test: (§1) Inhibition of HIV-1 (strain A17)-infected MT-4 cells; assay type: functional, organism-based; details: Human immunodeficiency virus 1, MT4
MT4 [6] = test: as §1; assay type: functional, cell-based; details: Homo sapiens
[7] = biological target: T1, Human immunodeficiency virus type 1 reverse transcriptase; test: Inhibition of reverse transcriptase activity of HIV-1 in the presence of [alpha35 S] TTP as cosubstrate.
[8] = biological target: T1, Human immunodeficiency virus type 1 reverse transcriptase; test: Inhibition of reverse transcriptase of HIV-1 (strain RF)-infected MT-4 cells in RPMI 1640 growth medium in MTM assay; Toxic; assay type: cell-based; details: mt4

`Cc1nc(CCCCCOCc2ccccc2)n2nc(Cl)ccc12` was tested, and the EC50 (C8166 [1]) was 380 nM, the EC50 (C8166 [2]) was 580 nM and the IC50 (MT4 [3]) was 290000 nM. For the same compound, the IC50 [4] was 2300 nM.
Work on `Cc1nc(CCCCCCC(=O)c2ccccc2)n2nc(N3CCCCC3)ccc12` yielded an IC50 [4] of 6700 nM.
`Cc1nc(CCCCCCC(=O)c2ccccc2)n2nc(-n3cccc3)ccc12` was tested, and the EC50 (C8166 [1]) was 5 nM, the EC50 (C8166 [2]) was 7 nM and the IC50 (MT4 [3]) was 26000 nM. The IC50 [4] was 80 nM.
With `Cc1nc(CCCCCOC(=O)C2CCCC2)n2nc(Cl)ccc12` the IC50 (MT4 [3]) was 250000 nM and the IC50 [4] was 22000 nM.
In the case of `Cc1nc(CCCCCCC(O)c2ccccc2)n2nc(-n3ccnc3)ccc12` (stereo unspecified), the EC50 (C8166 [1]) is reported as 4 nM, the EC50 (C8166 [2]) is reported as 6 nM and the IC50 (MT4 [3]) is reported as 26000 nM. It also gave an IC50 [4] of 230 nM.
With `Cc1nc(CCCCCCC(=O)c2ccccc2)n2nc(-n3ccnn3)ccc12` the IC50 (MT4 [3]) was 26000 nM and the IC50 [4] was 640 nM.
`COc1ccc2c(C)nc(CCCCCCC(=O)c3ccccc3)n2n1` was tested, and the IC50 (MT4 [3]) was 250000 nM and the IC50 [4] was 640 nM.
For `Cc1nc(CCCCCCCc2ccccc2)n2nc(Cl)ccc12`, the IC50 (MT4 [3]) was 250000 nM and the IC50 [4] was 14000 nM.
Compound `CNc1ccc2c(C)nc(CCCCCCC(=O)c3ccccc3)n2n1` has an IC50 (MT4 [3]) of 25000 nM and an IC50 [4] of 3400 nM.
`Cc1nc(CCCCCCC(=O)c2ccccc2)n2nc(-n3cccn3)ccc12` showed an IC50 (MT4 [3]) of 26000 nM and an IC50 [4] of 3400 nM.
Work on `Cc1nc(CCCCCCC(=O)c2ccccc2)n2nc(-n3cnnc3)ccc12` yielded an IC50 (MT4 [3]) of 260000 nM and an IC50 [4] of 2600 nM.
For `CSc1ccc2c(C)nc(CCCCCCC(=O)c3ccccc3)n2n1`, the IC50 (MT4 [3]) was 27000 nM and the IC50 [4] was 80 nM.
Work on `CC(=O)OCCCCCc1nc(C)c2ccc(Cl)nn12` yielded an IC50 [4] of 110000 nM.
Compound `Cc1cn([C@H]2C[C@H](N=[N+]=[N-])[C@@H](CO)O2)c(=O)[nH]c1=O` [ZIDOVUDINE] has an EC50 (C8166 [1]) of 20 nM, an EC50 (C8166 [2]) of 30 nM and an EC50 [5] of 10 nM.
Compound `Cc1nc(CCCCCCC(=O)c2ccccc2)n2nc(N)ccc12` has an IC50 (MT4 [3]) of 30000 nM and an IC50 [4] of 3000 nM.
`Cc1nc(CCCCCCC(=O)c2ccccc2)n2nc(-n3ccnc3C)ccc12` showed an IC50 (MT4 [3]) of 260000 nM and an IC50 [4] of 2500 nM.
`Cc1nc(CCCCCCC(=O)c2ccccc2)n2nc(-n3ccnc3)ccc12` gave an EC50 (C8166 [1]) of 5 nM, an EC50 (C8166 [2]) of 0.6 nM and an EC50 [5] of 1900 nM. The IC50 (MT4 [3]) was 26000 nM and the IC50 [4] was 0.6 nM.
Work on `Cc1nc(CCCCCC(=O)Cc2ccccc2)n2nc(Cl)ccc12` yielded an IC50 (MT4 [3]) of 28000 nM and an IC50 [4] of 3900 nM.
In the case of `Cc1nc(CCCCCCC(=O)c2ccccc2)n2nc(-n3nccn3)ccc12`, the IC50 (MT4 [3]) is reported as 260000 nM and the IC50 [4] is reported as 1300 nM.
Work on `O=C(CCCCCCc1ncc2ccc(Cl)nn12)c1ccccc1` yielded an EC50 (C8166 [1]) of 340 nM, an EC50 (C8166 [2]) of 210 nM and an IC50 (MT4 [3]) of 25000 nM. It also gave an IC50 [4] of 340 nM.
In the case of `Cc1cn(-c2ccc3c(C)nc(CCCCCCC(=O)c4ccccc4)n3n2)cn1`, the EC50 (C8166 [1]) is reported as 160 nM, the EC50 (C8166 [2]) is reported as 65 nM and the IC50 (MT4 [3]) is reported as 260000 nM. The IC50 [4] was 550 nM.
`Cc1nc(CCCCCCC(=O)c2ccccc2)n2nc(-n3cncc3C)ccc12` showed an EC50 (C8166 [1]) of 30 nM, an EC50 (C8166 [2]) of 10 nM and an IC50 (MT4 [3]) of 26000 nM. The IC50 [4] was 100 nM.
`Cc1nc(CCCCCCC(=O)c2ccccc2)n2nc(-n3cncn3)ccc12` showed an IC50 (MT4 [3]) of 26000 nM and an IC50 [4] of 100 nM.
`CCc1cc(NCc2nc3c(Cl)ccc(Cl)c3o2)c(O)nc1C` [L-697661] was tested, and the EC50 (C8166 [1]) was 7 nM, the EC50 (C8166 [2]) was 7 nM and the EC50 (MT4 [6]) was over 10000 nM. The IC50 [7] was 850 nM.
For `Cc1nc(CCCCCCC(=O)c2ccccc2)n2nc(N(C)C)ccc12`, the IC50 (MT4 [3]) was 27000 nM and the IC50 [4] was 270 nM.
For `CC(C)c1nc(CCCCCCC(=O)c2ccccc2)n2nc(Cl)ccc12`, the IC50 [4] was 110000 nM.
With `Cc1nc(CCCCCCC(=O)c2ccccc2)n2nc(N3CCCC3)ccc12` the IC50 (MT4 [3]) was under 30 nM, the IC50 [4] was 50 nM and the EC50 [8] was “Toxic”.
Work on `Cc1nc(CCCCCCC(O)c2ccccc2)n2nc(Cl)ccc12` (stereo unspecified) yielded an EC50 (C8166 [1]) of under 80 nM, an EC50 (C8166 [2]) of under 80 nM and an IC50 (MT4 [3]) of 250000 nM. The IC50 [4] was 380 nM.
`CCc1nc(CCCCCCC(=O)c2ccccc2)n2nc(Cl)ccc12` was tested, and the IC50 (MT4 [3]) was 25000 nM and the IC50 [4] was 2000 nM.
For `Cc1nc(CCCCCCC(=O)c2ccccc2)n2ncccc12`, the IC50 (MT4 [3]) was 280000 nM and the IC50 [4] was 560 nM.
With `Cc1nc(CCCCCO)n2nc(Cl)ccc12` the IC50 [4] was over 100000 nM.
With `Cc1nc(CCCCCOC(=O)c2ccccc2)n2nc(Cl)ccc12` the EC50 (C8166 [1]) was 1100 nM, the EC50 (C8166 [2]) was 1600 nM and the IC50 (MT4 [3]) was over 25000 nM. For the same compound, the IC50 [4] was 1340 nM and 1300 nM.
In the case of `Cc1nc(CCCCCCCC(=O)c2ccccc2)n2nc(Cl)ccc12`, the IC50 (MT4 [3]) is reported as 250000 nM and the IC50 [4] is reported as 3000 nM.
`Cc1nc(CCCCCC(=O)c2ccccc2)n2nc(Cl)ccc12` showed an IC50 (MT4 [3]) of 250000 nM and an IC50 [4] of 4800 nM.
`Cc1nc(CCCCCCC(=O)c2ccccc2)n2nc(Cl)ccc12` showed an EC50 (C8166 [1]) of 80 nM, an EC50 (C8166 [2]) of 80 nM and an IC50 (MT4 [3]) of 25000 nM. For the same compound, the IC50 [4] was 840 nM.
